Tested on: spontaneously hypertensive rats (SHR)
Test: Diuretic activity in spontaneously hypertensive rats
Assay type: in vivo, male spontaneously hypertensive rats (Okamoto strain)
Settings: 100 mg/kg by gavage with 0.9% sodium chloride loading 25 ml/kg; 0-5 hour urine
Experimental: The diuretic activity of the compounds of this invention was also determined according to the method of Chan, P. S. and Poorvin, D., Sequential method for combined screening antihypertensive and diuretic agents in the same spontaneously hypertensive rat. Clinical and Experimental Hypertension, 1(6), 817-830 (1979).
Male spontaneously hypertensive rats (SHR) of Okamoto strain, 16 weeks old, Taconic Farms Inc. were used in the test. These rats were kept on Purina laboratory chow and tap water ad libitum for 8 weeks before use. One male adult rat (about 300 g) was dosed by gavage with a test compound at 100 mg/kg together with 0.9% sodium chloride loading at 25 ml/kg at zero hour. The test compound was suspended in 3% preboiled starch at 50 mg/ml. The rat was put in a metabolism cage. The 0-5 hour urine was collected and urinary sodium and potassium were determined using a Beckman Astra 4. The effects of representative compounds of the invention according to this test appear in Table III expressed in milliequivalents (mEQ) of urinary sodium and potassium excreted.

| Structure (SMILES) | Potassium (urinary excretion) | Sodium (urinary excretion) | Volume (urine) |
| --- | --- | --- | --- |
| CCC1(OC(=O)N=P(c2ccccc2)(c2ccccc2)c2ccccc2)CCCC1 [(triphenylphosphoranylidene)carbamic acid, 1-ethylcyclopentyl ester] | 1.01 mEQ/5 Hours | 1.34 mEQ/5 Hours | 12.5 mL |
| CCOC(=O)N=P(c1ccccc1)(c1ccccc1)c1c(C)cccc1C [[[(2,6-dimethylphenyl)diphenyl]phosphoranylidene]carbamic acid, ethyl ester] | 0.86 mEQ/5 Hours | 1.48 mEQ/5 Hours | 13.0 mL |
| COC1CCCCC1OC(=O)N=P(c1ccccc1)(c1ccccc1)c1ccccc1 (stereo not drawn) [(triphenylphosphoranylidene)carbamic acid, cis- and trans-2-methoxycyclohexyl ester] | 0.59 mEQ/5 Hours | 1.15 mEQ/5 Hours | 11.3 mL |
| CCOC(=O)N=P(c1ccccc1)(c1ccccc1)c1cccc(F)c1 [[[(3-fluorophenyl)diphenylphosphoranylidene]carbamic acid, ethyl ester] | 0.62 mEQ/5 Hours | 2.44 mEQ/5 Hours | 24.0 mL |
| CCOC(=O)N=P(c1ccccc1)(c1ccccc1)c1ccccc1OC [[(2-Methoxyphenyl)diphenylphosphoranylidene]carbamic acid, ethyl ester] | 0.97 mEQ/5 Hours | 1.31 mEQ/5 Hours | 11.3 mL |
| CO[C@@H]1CCCC[C@H]1OC(=O)N=P(c1ccccc1)(c1ccccc1)c1ccccc1 (relative stereo) [(triphenylphosphoranylidene)carbamic acid, trans-2-methoxycyclohexyl ester] | 0.67 mEQ/5 Hours | 1.45 mEQ/5 Hours | 12.8 mL |
| CC1CC1COC(=O)N=P(c1ccccc1)(c1ccccc1)c1ccccc1 (stereo not drawn) [(triphenylphosphoranylidene)carbamic acid, (2-methylcyclopropyl)methyl ester] | 0.47 mEQ/5 Hours | 1.28 mEQ/5 Hours | 11.3 mL |
| O=C(N=P(c1ccccc1)(c1ccccc1)c1ccccc1)OC1CCOCC1 [(triphenylphosphoranylidene)carbamic acid, tetrahydro-2 --H--pyran-4-yl ester] | 0.64 mEQ/5 Hours | 1.60 mEQ/5 Hours | 15.3 mL |
| C#CCOC(=O)N=P(c1ccccc1)(c1ccccc1)c1ccccc1 [(triphenylphosphoranylidene)carbamic acid, 2-propynyl ester] | 0.58 mEQ/5 Hours | 1.76 mEQ/5 Hours | 15.5 mL |
| O=C(N=P(c1ccccc1)(c1ccccc1)c1ccccc1)OC1CCCC1 [(triphenylphosphoranylidene)carbamic acid, cyclopentyl ester] | 0.80 mEQ/5 Hours | 1.48 mEQ/5 Hours | 14.0 mL |
| CCCC1(OC(=O)N=P(c2ccccc2)(c2ccccc2)c2ccccc2)CCCC1 [(triphenylphosphoranylidene)carbamic acid, 1-propylcyclopentyl ester] | 0.63 mEQ/5 Hours | 1.14 mEQ/5 Hours | 10.3 mL |
| COC(=O)N=P(c1ccccc1)(c1ccccc1C)c1ccccc1C [[Bis(2-methylphenyl)phenylphosphoranylidene]carbamic acid, methyl ester] | 0.76 mEQ/5 Hours | 1.45 mEQ/5 Hours | 13.5 mL |
| O=C(N=P(c1ccccc1)(c1ccccc1)c1ccccc1Cl)OC1CCOC1 (stereo not drawn) [[(2-chlorophenyl)diphenylphosphoranylidene]carbamic acid, tetrahydro-3-furanyl ester] | 0.68 mEQ/5 Hours | 1.90 mEQ/5 Hours | 20.0 mL |
| O=C(N=P(c1ccccc1)(c1ccccc1)c1ccccc1)OC1CCc2ccccc21 (stereo not drawn) [(Triphenylphosphoranylidene)carbamic acid, 2,3-dihydro-1 --H--inden-1-yl ester] | 0.87 mEQ/5 Hours | 1.41 mEQ/5 Hours | 13.0 mL |
| CCOC(=O)N=P(c1ccccc1)(c1cccc(Cl)c1)c1cccc(Cl)c1 [[[bis(3-chlorophenyl)phenyl]phosphoranylidene]carbamic acid, ethyl ester] | 0.89 mEQ/5 Hours | 1.84 mEQ/5 Hours | 18.3 mL |
| CCOC(=O)N=P(c1ccccc1)(c1ccccc1Cl)c1ccccc1Cl [[bis(2-chlorophenyl)phenylphosphoranylidene]carbamic acid, ethyl ester] | 0.38 mEQ/5 Hours | 2.40 mEQ/5 Hours | 22.3 mL |
| CC1(OC(=O)N=P(c2ccccc2)(c2ccccc2)c2ccccc2)CCCC1 [(Triphenylphosphoranylidene)carbamic acid, 1-methylcyclopentyl ester] | 0.86 mEQ/5 Hours | 1.49 mEQ/5 Hours | 14.8 mL |
| CCOC(=O)N=P(c1ccccc1)(c1ccccc1)c1cccc(C(F)(F)F)c1 [[(3-trifluorophenyl)diphenylphosphoranylidene]carbamic acid, ethyl ester] | 0.67 mEQ/5 Hours | 1.38 mEQ/5 Hours | 13.5 mL |
| O=C(N=P(c1ccccc1)(c1ccccc1)c1ccccc1)OC(C1CC1)C1CC1 [(triphenylphosphoranylidene)carbamic acid, dicyclopropylmethyl ester] | 1.07 mEQ/5 Hours | 1.58 mEQ/5 Hours | 14.3 mL |
| CCOC(=O)N=P(c1ccccc1)(c1ccccc1)c1ccccc1Br [[(2-bromophenyl)diphenylphosphoranylidene]carbamic acid, ethyl ester] | 0.68 mEQ/5 Hours | 2.51 mEQ/5 Hours | 22.5 mL |
| CCOC(=O)N=P(c1ccccc1)(c1ccccc1)c1ccccc1F [[Diphenyl(2-fluorophenyl)phosphoranylidene]carbamic acid, ethyl ester] | 0.66 mEQ/5 Hours | 2.01 mEQ/5 Hours | 19.8 mL |
| O=C(N=P(c1ccccc1)(c1ccccc1)c1ccccc1)OC1C=CCC1 (stereo not drawn) [(triphenylphosphoranylidene)carbamic acid, 2-cyclopenten-1-yl ester] | 0.83 mEQ/5 Hours | 1.58 mEQ/5 Hours | 15.5 mL |
| CCOC(=O)N=P(c1ccccc1)(c1ccccc1)c1ccccc1CC [[(2-ethylphenyl)diphenylphosphoranylidene]carbamic acid, ethyl ester] | 0.78 mEQ/5 Hours | 2.07 mEQ/5 Hours | 19.0 mL |
| CC(=O)CCCOC(=O)N=P(c1ccccc1)(c1ccccc1)c1ccccc1 [(triphenylphosphoranylidene)carbamic acid, 4-oxo-pentan-1-yl ester] | 0.58 mEQ/5 Hours | 1.16 mEQ/5 Hours | 13.3 mL |
| CCO[C@@H]1CCC[C@H]1OC(=O)N=P(c1ccccc1)(c1ccccc1)c1ccccc1 (relative stereo) [(triphenylphosphoranylidene)carbamic acid, trans-2-ethoxycyclopentyl ester] | 0.73 mEQ/5 Hours | 1.38 mEQ/5 Hours | 13.3 mL |
| CC#CCOC(=O)N=P(c1ccccc1)(c1ccccc1)c1ccccc1 [(triphenylphosphoranylidene)carbamic acid, 2-butynyl ester] | 0.57 mEQ/5 Hours | 1.15 mEQ/5 Hours | 10.0 mL |
| COC(=O)N=P(c1ccccc1)(c1ccccc1)c1cccc(Cl)c1 [[(3-chlorophenyl)diphenylphosphoranylidene]carbamic acid, methyl ester] | 0.60 mEQ/5 Hours | 2.45 mEQ/5 Hours | 23.0 mL |
| CO[C@@H]1CCC[C@H]1OC(=O)N=P(c1ccccc1)(c1ccccc1)c1ccccc1 (relative stereo) [(triphenylphosphoranylidene)carbamic acid, trans-2-methoxycyclopentyl ester] | 0.72 mEQ/5 Hours | 1.83 mEQ/5 Hours | 17.0 mL |
| O=C(N=P(c1ccccc1)(c1ccccc1)c1ccccc1)OCC1CC1 [(Triphenylphosphoranylidene)carbamic acid, cyclopropylmethyl ester] | 0.57 mEQ/5 Hours | 2.00 mEQ/5 Hours | 19.5 mL |
| CCOC(=O)N=P(c1ccccc1)(c1ccccc1)c1ccccc1C(C)C [[[2-(1-Methylethyl)phenyl]diphenylphosphoranylidene]carbamic acid, ethyl ester] | 0.83 mEQ/5 Hours | 2.08 mEQ/5 Hours | 18.8 mL |
